Source: patent US9850283B2, “Macrocyclic inhibitors of the PD-1/PD-L1 and CD80(B7-1)/PD-L1 protein/protein interactions” (BRISTOL-MYERS SQUIBB COMPANY, priority 2013, dated 2017)
Positions of bridges follow the written chain, without caps; N, C: chain ends. Non-standard residues stand in square brackets, D forms with d. Residues, ends and D or L forms follow the SMILES beside them. ξ: configuration not given here. *: point of attachment. Pro(trans-4-cHex) = O=C(O)[C@@H]1C[C@@H](C2CCCCC2)CN1; Pro(trans-4-Ph) = O=C(O)[C@@H]1C[C@@H](c2ccccc2)CN1; Bip = N[C@@H](Cc1ccc(-c2ccccc2)cc1)C(=O)O; Phe(4-F) = N[C@@H](Cc1ccc(F)cc1)C(=O)O; Hyp = O=C(O)[C@@H]1C[C@@H](O)CN1; NMeNle = CCCC[C@H](NC)C(=O)O; NMeA = CN[C@@H](C)C(=O)O; Orn = NCCC[C@H](N)C(=O)O; Dab = NCC[C@H](N)C(=O)O; Dap = NC[C@H](N)C(=O)O; ξP = O=C(O)C1CCCN1; Bn = c1ccc(C*)cc1; Sar = CNCC(=O)O

Experiments:
Hu PD-L1/PD-1 = Hu PD-L1/PD-1 (Homo sapiens, UniProt Q9NZQ7); assay: Cell binding assay Hu PD-L1/PD-1 (Tables 11-13, cell line not given); type: cell-based
Sequence of Hu PD-L1/PD-1 (Q9NZQ7 19-290): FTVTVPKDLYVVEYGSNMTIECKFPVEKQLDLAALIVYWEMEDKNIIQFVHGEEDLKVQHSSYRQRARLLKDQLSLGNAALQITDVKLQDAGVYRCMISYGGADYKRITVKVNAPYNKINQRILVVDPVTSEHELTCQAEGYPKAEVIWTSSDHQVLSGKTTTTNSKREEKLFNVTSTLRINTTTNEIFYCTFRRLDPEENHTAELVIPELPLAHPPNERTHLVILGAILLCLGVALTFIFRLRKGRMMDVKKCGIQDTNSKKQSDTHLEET
Experimental: The ability of the macrocyclic peptides of the present disclosure to bind to Jurkat, mouse B cell line (LK35.2), and a human lung adenocarcinoma cell line (L2987) was investigated. Jurkat-PD-1 Cell Binding Assay. Phycoerythrin (PE) was covalently linked to the Ig epitope tag of human PD-L1-Ig and fluorescently-labeled PD-L1-Ig was used for binding studies with a Jurkat cell line over-expressing human PD-1 (Jurkat-PD-1). […] Cells were washed 3× in dPBS. Cells were resuspended in 200 μl of dPBS and binding was measured by flow cytometry. LK35.2-hPD-L1 Cell Binding Assay. Phycoerythrin (PE) was covalently linked to the Ig eptitope tag of human PD-1-Ig and fluorescently-labeled PD-1-Ig was used for binding studies with a mouse B cell line (LK35.2) stably over-expressing human PD-L1 (LK35.2-hPD-L1). Briefly, […] LK35.2-hPD-L1 cells were pre-incubated with inhibitor for 15 m in a 30 μl volume of RPMI supplemented with 2% fetal calf serum. 20 μl of PE-labeled PD-1-Ig (2 nM final), diluted in RPMI supplemented with 2% fetal calf serum, was dispensed on top of cells and inhibitor and binding was allowed to take place for 1 h at room temperature. Cells were washed 3× in dPBS. Cells were resuspended in 200 μl of dPBS and binding was measured by flow cytometry. L2987 Cellomics Cell Binding Assay. Phycoerythrin (PE) was covalently linked to the Ig eptitope tag of human PD-1-Ig and fluorescently-labeled PD-1-Ig was used for binding studies with a human lung adenocarcinoma cell line (L2987) which naturally expresses PD-L1. […] The following day, inhibitors were diluted in serum-free DMEM and 25 μl was dispensed on top of cells. […] Samples were incubated for 1 h at 37° C. followed by 2 washes in dPBS and fixation for 30 m with 4% paraformaldehyde. Samples were further washed 2× in dPBS. Hoechst (final 1 μg/ml) was added to final wash to stain nuclei. Plates were processed using a Cellomics […]®.

[1] = molecular target: T1, LK35.2-hPD-L1 cells / PE-labeled PD-1-Ig (Homo sapiens, UniProt Q9NZQ7); assay: LK35.2-hPD-L1 cell binding high-content screening assay; type: cell-based; settings: cell binding assay, cell line not given; cluster symbol; read-out: CBA IC50 cluster
T1 construct: expressed in transfected cells; host or cells: LK35.2 mouse B cell line
T1 sequence (Q9NZQ7 19-290): as above
Procedure, shortened: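 Readout: high-content imaging of PE-PD-1-Ig bound to LK35.2-hPD-L1 cells. Cells plated overnight (RPMI/10% FCS); compound + 1 nM PE-PD-1-Ig, 1 h, 37 °C; 3× dPBS wash before imaging.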

Human PD-L1/PD-1 = molecular target: T2, Human PD-L1/PD-1 (Homo sapiens, UniProt Q9NZQ7); assay: HTRF PD-1-Ig/PD-L1-His binding assay (human PD-L1); settings: cluster symbol; read-out: HTRF IC50 cluster
T2 construct: made in house; host or cells: HEK293T
T2 sequence (Q9NZQ7 with tags, fused parts or gaps): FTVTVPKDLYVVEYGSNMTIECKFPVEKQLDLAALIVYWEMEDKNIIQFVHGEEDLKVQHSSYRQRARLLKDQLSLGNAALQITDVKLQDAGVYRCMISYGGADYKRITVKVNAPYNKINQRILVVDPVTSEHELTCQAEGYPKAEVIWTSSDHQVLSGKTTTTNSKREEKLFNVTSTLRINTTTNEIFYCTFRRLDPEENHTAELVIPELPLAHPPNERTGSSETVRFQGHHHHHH
Procedure, shortened: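 Ig- and His-fused extracellular PD-1/PD-L1 binding in BSA/Tween-20 dPBS. HTRF with Eu anti-Ig (1 nM final) and APC anti-His (20 nM final).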

Row | Compound | IC50 (Hu PD-L1/PD-1) [nM] | IC50 [1] [nM] | IC50 (Human PD-L1/PD-1) [nM]
1 | CCCC[C@H]1C(=O)N(C)[C@@H](CCCC)C(=O)N[C@@H](CCCNC(=N)N)C(=O)N[C@H](C(=O)NCC(N)=O)CSCC(=O)N[C@@H](C)C(=O)N(C)[C@@H](C)C(=O)N[C@@H](CC(N)=O)C(=O)N2CCCC2C(=O)N[C@@H](Cc2cnc[nH]2)C(=O)N[C@@H](CC(C)C)C(=O)N(C)CC(=O)N[C@@H](Cc2c[nH]c3ccccc23)C(=O)N[C@@H](CO)C(=O)N[C@@H](Cc2c[nH]c3ccccc23)C(=O)N1C (stereo partly drawn) [Compound No. 5] ({CH2CO}-A[NMeA]N[ξP]HL[Sar]WSW[NMeNle][NMeNle]RCG-NH2; thioether N-14) | > 10000 | – | –
2 | CCCC[C@H]1C(=O)N(C)[C@@H](CCCC)C(=O)N[C@@H](CCCNC(=N)N)C(=O)N[C@H](C(=O)NCC(N)=O)CSCC(=O)N[C@@H](Cc2ccccc2)C(=O)N(C)[C@@H](C)C(=O)N[C@@H](CC(N)=O)C(=O)N[C@@H](C)C(=O)N[C@@H](Cc2cnc[nH]2)C(=O)N[C@@H](CC(C)C)C(=O)N(C)CC(=O)N[C@@H](Cc2c[nH]c3ccccc23)C(=O)N[C@@H](CO)C(=O)N[C@@H](Cc2c[nH]c3ccccc23)C(=O)N1C [Compound No. 9] ({CH2CO}-F[NMeA]NAHL[Sar]WSW[NMeNle][NMeNle]RCG-NH2; thioether N-14) | 71 | – | –
3 | CCCC[C@H]1C(=O)N(C)[C@@H](CCCC)C(=O)N[C@@H](CCCNC(=N)N)C(=O)N[C@H](C(=O)NCC(N)=O)CSCC(=O)N[C@@H](Cc2ccc(-c3ccccc3)cc2)C(=O)N(C)[C@@H](C)C(=O)N[C@@H](CC(N)=O)C(=O)N2CCC[C@H]2C(=O)N[C@@H](Cc2cnc[nH]2)C(=O)N[C@@H](CC(C)C)C(=O)N(C)CC(=O)N[C@@H](Cc2c[nH]c3ccccc23)C(=O)N[C@@H](CO)C(=O)N[C@@H](Cc2c[nH]c3ccccc23)C(=O)N1C [Compound No. 28] ({CH2CO}-[Bip][NMeA]NPHL[Sar]WSW[NMeNle][NMeNle]RCG-NH2; thioether N-14) | 82 | – | –
4 | CCCC[C@H]1C(=O)N(C)[C@@H](CCCC)C(=O)N[C@@H](CCCNC(=N)N)C(=O)N[C@@H](C(=O)NCC(N)=O)CSCC(=O)N[C@@H](Cc2ccc(F)cc2)C(=O)N(C)[C@@H](C)C(=O)N[C@@H](CC(N)=O)C(=O)N2CCC[C@H]2C(=O)N[C@@H](Cc2cnc[nH]2)C(=O)N[C@@H](CC(C)C)C(=O)N(C)CC(=O)N[C@@H](Cc2c[nH]c3ccccc23)C(=O)N[C@@H](CO)C(=O)N[C@@H](Cc2c[nH]c3ccccc23)C(=O)N1C [Compound No. 32] ({CH2CO}-[Phe(4-F)][NMeA]NPHL[Sar]WSW[NMeNle][NMeNle]R[dC]G-NH2; thioether N-14) | 25 | – | –
5 | CCCC[C@H]1C(=O)N(C)[C@@H](CCCC)C(=O)N[C@@H](CCCN)C(=O)N[C@H](C(=O)NCC(N)=O)CSCC(=O)N[C@@H](Cc2ccc(O)cc2)C(=O)N(C)[C@@H](C)C(=O)N[C@@H](CC(N)=O)C(=O)N2CCC[C@H]2C(=O)N[C@@H](CN)C(=O)N[C@@H](CC(C)C)C(=O)N2C[C@H](c3ccccc3)C[C@H]2C(=O)N[C@@H](Cc2c[nH]c3ccccc23)C(=O)N[C@@H](CO)C(=O)N[C@@H](Cc2c[nH]c3ccccc23)C(=O)N1C [Example 14001] ({CH2CO}-Y[NMeA]NP[Dap]L[Pro(trans-4-Ph)]WSW[NMeNle][NMeNle][Orn]CG-NH2; thioether N-14) | – | 0.158 to 4.71 | 0.385 to 6.74
6 | CCCC[C@H]1C(=O)N(C)[C@@H](CCCC)C(=O)N[C@@H](CCC(=O)O)C(=O)N[C@H](C(=O)NCC(N)=O)CSCC(=O)N[C@@H](Cc2ccc(O)cc2)C(=O)N(C)[C@@H](C)C(=O)N[C@@H](CC(=O)O)C(=O)N2CCC[C@H]2C(=O)N[C@@H](Cc2c[nH]cn2)C(=O)N[C@@H](CCCCN)C(=O)N2C[C@H](c3ccccc3)C[C@H]2C(=O)N[C@@H](Cc2c[nH]c3ccccc23)C(=O)N[C@@H](CCCCN)C(=O)N[C@@H](Cc2c[nH]c3ccccc23)C(=O)N1C [Example 14002] ({CH2CO}-Y[NMeA]DPHK[Pro(trans-4-Ph)]WKW[NMeNle][NMeNle]ECG-NH2; thioether N-14) | – | 0.158 to 4.71 | 0.385 to 6.74
7 | CCCC[C@H]1C(=O)N(C)[C@@H](CCCC)C(=O)N[C@@H](CCCN)C(=O)N[C@H](C(=O)NCC(N)=O)CSCC(=O)N[C@@H](Cc2ccc(O)cc2)C(=O)N(C)[C@@H](C)C(=O)N[C@@H](CC(N)=O)C(=O)N2CCC[C@H]2C(=O)N[C@@H](CN)C(=O)N[C@@H](CC(C)C)C(=O)N2C[C@H](OCc3ccccc3)C[C@H]2C(=O)N[C@@H](Cc2c[nH]c3ccccc23)C(=O)N[C@@H](CO)C(=O)N[C@@H](Cc2c[nH]c3ccccc23)C(=O)N1C [Example 14003] ({CH2CO}-Y[NMeA]NP[Dap]L[Hyp](Bn)WSW[NMeNle][NMeNle][Orn]CG-NH2; thioether N-14) | – | 0.158 to 4.71 | 0.385 to 6.74
8 | CCCC[C@H]1C(=O)N(C)[C@@H](CCCC)C(=O)N[C@@H](CCC(=O)O)C(=O)N[C@H](C(=O)NCC(N)=O)CSCC(=O)N[C@@H](Cc2ccc(O)cc2)C(=O)N(C)[C@@H](C)C(=O)N[C@@H](CC(=O)O)C(=O)N2CCC[C@H]2C(=O)N[C@@H](Cc2c[nH]cn2)C(=O)N[C@@H](CCCCN)C(=O)N2C[C@H](OCc3ccccc3)C[C@H]2C(=O)N[C@@H](Cc2c[nH]c3ccccc23)C(=O)N[C@@H](CCCCN)C(=O)N[C@@H](Cc2c[nH]c3ccccc23)C(=O)N1C [Example 14004] ({CH2CO}-Y[NMeA]DPHK[Hyp](Bn)WKW[NMeNle][NMeNle]ECG-NH2; thioether N-14) | – | 0.158 to 4.71 | 0.385 to 6.74
9 | CCCC[C@H]1C(=O)N(C)[C@@H](CCCC)C(=O)N[C@@H](CCN)C(=O)N[C@H](C(=O)NCC(N)=O)CSCC(=O)N[C@@H](Cc2ccc(O)cc2)C(=O)N(C)[C@@H](C)C(=O)N[C@@H](CC(N)=O)C(=O)N2CCC[C@H]2C(=O)N[C@@H](Cc2c[nH]cn2)C(=O)N[C@@H](CCC(=O)O)C(=O)N2C[C@H](C3CCCCC3)C[C@H]2C(=O)N[C@@H](Cc2c[nH]c3ccccc23)C(=O)N[C@@H](CCN)C(=O)N[C@@H](Cc2c[nH]c3ccccc23)C(=O)N1C [Example 14005] ({CH2CO}-Y[NMeA]NPHE[Pro(trans-4-cHex)]W[Dab]W[NMeNle][NMeNle][Dab]CG-NH2; thioether N-14) | – | 0.158 to 4.71 | 0.385 to 6.74
10 | CCCC[C@H]1C(=O)N(C)[C@@H](CCCC)C(=O)N[C@@H](CCCN)C(=O)N[C@H](C(=O)NCC(N)=O)CSCC(=O)N[C@@H](Cc2ccc(O)cc2)C(=O)N(C)[C@@H](C)C(=O)N[C@@H](CC(N)=O)C(=O)N2CCC[C@H]2C(=O)N[C@@H](CN)C(=O)N[C@@H](CC(C)C)C(=O)N2C[C@H](C3CCCCC3)C[C@H]2C(=O)N[C@@H](Cc2c[nH]c3ccccc23)C(=O)N[C@@H](CO)C(=O)N[C@@H](Cc2c[nH]c3ccccc23)C(=O)N1C [Example 14007] ({CH2CO}-Y[NMeA]NP[Dap]L[Pro(trans-4-cHex)]WSW[NMeNle][NMeNle][Orn]CG-NH2; thioether N-14) | – | 0.158 to 4.71 | 0.385 to 6.74
11 | CCCC[C@H]1C(=O)N(C)[C@@H](CCCC)C(=O)N[C@@H](CCC(=O)O)C(=O)N[C@H](C(=O)NCC(N)=O)CSCC(=O)N[C@@H](Cc2ccc(O)cc2)C(=O)N(C)[C@@H](C)C(=O)N[C@@H](CC(=O)O)C(=O)N2CCC[C@H]2C(=O)N[C@@H](Cc2c[nH]cn2)C(=O)N[C@@H](CCCCN)C(=O)N2C[C@H](C3CCCCC3)C[C@H]2C(=O)N[C@@H](Cc2c[nH]c3ccccc23)C(=O)N[C@@H](CCCCN)C(=O)N[C@@H](Cc2c[nH]c3ccccc23)C(=O)N1C [Example 14008] ({CH2CO}-Y[NMeA]DPHK[Pro(trans-4-cHex)]WKW[NMeNle][NMeNle]ECG-NH2; thioether N-14) | – | 0.158 to 4.71 | 0.385 to 6.74
